Where two headings read alike, the source gives them in different places.
Columns and labels:
Type in all cases: biochemical
DYRK2 = molecular target: T1, DYRK2 (Homo sapiens, UniProt Q92630); assay: Radiometric protein kinase assay (33PanQinase Activity Assay), DYRK2; conditions: read-out: IC50 on DYRK2 (most potent DYRK2 inhibitors)
T1 construct: GST-fusion or His-tag (not specified per kinase); purchased ProQinase GmbH; host or cells: Sf9 insect cells or E. coli (not specified per kinase)
T1 sequence (Q92630 1-601): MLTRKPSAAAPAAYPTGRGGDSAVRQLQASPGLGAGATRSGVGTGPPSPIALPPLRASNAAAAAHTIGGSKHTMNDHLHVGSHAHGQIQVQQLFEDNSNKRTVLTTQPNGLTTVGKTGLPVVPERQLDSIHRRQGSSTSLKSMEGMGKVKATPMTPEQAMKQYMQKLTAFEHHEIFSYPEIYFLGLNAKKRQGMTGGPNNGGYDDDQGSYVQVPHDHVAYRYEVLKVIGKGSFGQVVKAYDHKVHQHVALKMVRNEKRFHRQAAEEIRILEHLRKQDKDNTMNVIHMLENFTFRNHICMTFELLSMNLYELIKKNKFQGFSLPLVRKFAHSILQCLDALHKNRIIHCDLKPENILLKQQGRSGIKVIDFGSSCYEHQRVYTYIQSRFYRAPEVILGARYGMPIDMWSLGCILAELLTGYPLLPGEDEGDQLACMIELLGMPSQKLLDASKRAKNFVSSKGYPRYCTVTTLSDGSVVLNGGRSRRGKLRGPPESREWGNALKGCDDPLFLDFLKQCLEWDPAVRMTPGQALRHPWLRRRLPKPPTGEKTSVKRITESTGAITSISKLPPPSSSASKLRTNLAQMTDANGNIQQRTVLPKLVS
Protocol: (§1) Assays were performed by ProQinase GmbH (Engesserstr. 4, D-79108 Freiburg, Germany. www.proqinase.com). The IC50 profile of all compounds was determined using 12 protein kinases (CDK2/cyclin E, CK1ε, CLK1, 2, 3, 4, DYRK1A, 1B, 2, 3, 4, GSK3β).
(§2) The compounds were provided as […] in 100% DMSO. Prior to testing, the 1 μM stock solutions were subjected to a serial, semi-logarithmic dilution using 100% DMSO as a solvent. […] In the process, 90 μl H2O were added to each well of each compound dilution plate. To minimize potential precipitation, the H2O was added to each plate only a few minutes before the transfer of the compound solutions into the assay plates. The plate was shaken thoroughly, resulting in a compound dilution plate/10% DMSO.
(§3) For the assays (see below), 5 μL solution from each well of the compound dilution plates/10% DMSO were transferred into the assay plates. The final volume of the assay was 50 μL. All compounds were tested at 10 final assay concentrations in the range from 10 μM to 30 nM. The final DMSO concentration in the reaction cocktails was 1% in all cases.
(§4) All protein kinases provided by ProQinase were expressed in Sf9 insect cells or in E. coli as recombinant GST-fusion proteins or His-tagged proteins, either as full-length or enzymatically active fragments. All kinases were produced from human cDNAs and purified by either GSH-affinity chromatography or immobilized metal. Affinity tags were removed from a number of kinases during purification. The purity of the protein kinases was examined by SDS-PAGE/Coomassie staining, the identity was checked by mass spectroscopy.
(§5) A radiometric protein kinase assay (33PanQinase® Activity Assay) was used for measuring the kinase activity of the 12 protein kinases. All kinase assays were performed in 96-well FlashPlates™ from PerkinElmer (Boston, MA, USA) in a 50 μL reaction volume. The reaction cocktail was pipetted in four steps in the following order: • 25 μL of assay buffer (standard buffer/[γ-^33P]-ATP), • 10 μL of ATP solution (in H2O), • 5 μL of test compound (in 10% DMSO), • 10 μL of enzyme/substrate mixture.
(§6) The reaction cocktails were incubated at 30° C. for 60 minutes. The reaction was stopped with 50 μL of 2% (v/v) H3PO4, plates were aspirated and washed two times with 200 μL 0.9% (w/v) NaCl. Incorporation of ^33Pi was determined with a microplate scintillation counter (Microbeta, Wallac). The IC50 values for all compounds were calculated from the dose response curves
(§7) As a parameter for assay quality, the Z′-factor (Zhang et al., J. Biomol. Screen. 2: 67-73, 1999) for the low and high controls of each assay plate (n=8) was used. ProQinase's criterion for repetition of an assay plate is a Z′-factor below 0.4 (Iversen et al., J. Biomol. Screen. 3: 247-252, 2006).

DYRK1A = molecular target: T2, DYRK1A (Homo sapiens, UniProt Q13627); assay: Radiometric protein kinase assay (33PanQinase Activity Assay), DYRK1A
T2 construct: GST-fusion or His-tag (not specified per kinase); purchased ProQinase GmbH; host or cells: Sf9 insect cells or E. coli (not specified per kinase)
How it was run: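 Recombinant human kinase, expressed in Sf9 or E. coli, in a radiometric [γ-33P]-ATP assay at 30 °C for 60 min. Compounds tested at 10 concentrations from 10 μM to 30 nM, 1% DMSO final. 33Pi incorporation measured by scintillation counting; IC50 from dose-response curves.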

CLK4 = molecular target: T3, CLK4 (Homo sapiens, UniProt Q9HAZ1); assay: Radiometric protein kinase assay (33PanQinase Activity Assay), CLK4; conditions: read-out: IC50 on CLK4 (most potent CLK4 inhibitors)
T3 construct: GST-fusion or His-tag (not specified per kinase); purchased ProQinase GmbH; host or cells: Sf9 insect cells or E. coli (not specified per kinase)
T3 sequence (Q9HAZ1 whole entry, the tested form may be a part): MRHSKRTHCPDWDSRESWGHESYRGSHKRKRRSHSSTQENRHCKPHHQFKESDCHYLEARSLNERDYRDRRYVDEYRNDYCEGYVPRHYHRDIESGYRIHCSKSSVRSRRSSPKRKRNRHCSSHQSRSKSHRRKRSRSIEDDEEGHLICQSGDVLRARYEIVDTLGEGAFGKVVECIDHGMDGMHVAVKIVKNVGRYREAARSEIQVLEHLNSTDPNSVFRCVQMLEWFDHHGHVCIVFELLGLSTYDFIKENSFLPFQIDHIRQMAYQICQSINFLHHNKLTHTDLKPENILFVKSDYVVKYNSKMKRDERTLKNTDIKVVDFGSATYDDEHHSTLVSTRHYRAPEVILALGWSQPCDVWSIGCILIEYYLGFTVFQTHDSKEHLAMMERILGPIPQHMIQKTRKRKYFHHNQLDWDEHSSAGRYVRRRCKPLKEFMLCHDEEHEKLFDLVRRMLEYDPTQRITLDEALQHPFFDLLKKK
How it was run: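 Human kinase (Sf9- or E. coli-expressed, tagged, purified) + substrate + [γ-33P]-ATP; cpd 10 μM→30 nM, 10 pts, 1% DMSO; 30 °C, 60 min; H3PO4 stop; scintillation count; IC50 from curve.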

DYRK3 = molecular target: T4, DYRK3 (Homo sapiens, UniProt O43781); assay: Radiometric protein kinase assay (33PanQinase Activity Assay), DYRK3; conditions: read-out: IC50 on DYRK3 (most potent DYRK3 inhibitors)
T4 construct: GST-fusion or His-tag (not specified per kinase); purchased ProQinase GmbH; host or cells: Sf9 insect cells or E. coli (not specified per kinase)
T4 sequence (O43781 1-588): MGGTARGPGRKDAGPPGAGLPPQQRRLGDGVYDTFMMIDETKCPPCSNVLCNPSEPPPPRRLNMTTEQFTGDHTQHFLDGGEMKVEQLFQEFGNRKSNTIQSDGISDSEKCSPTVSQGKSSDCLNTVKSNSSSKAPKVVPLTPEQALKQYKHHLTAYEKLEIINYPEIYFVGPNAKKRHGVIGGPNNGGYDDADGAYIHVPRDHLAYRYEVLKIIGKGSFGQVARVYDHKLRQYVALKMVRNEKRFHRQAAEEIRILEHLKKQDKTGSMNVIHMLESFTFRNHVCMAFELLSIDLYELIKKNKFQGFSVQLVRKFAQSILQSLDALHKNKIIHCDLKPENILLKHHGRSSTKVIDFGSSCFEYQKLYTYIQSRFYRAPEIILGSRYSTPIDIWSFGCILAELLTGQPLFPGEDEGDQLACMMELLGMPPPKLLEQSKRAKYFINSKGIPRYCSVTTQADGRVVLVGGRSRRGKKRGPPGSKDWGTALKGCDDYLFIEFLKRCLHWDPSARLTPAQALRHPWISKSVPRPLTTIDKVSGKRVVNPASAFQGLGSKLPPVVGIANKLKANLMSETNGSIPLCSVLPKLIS
Protocol: as §1, §2, §3, §4, §5, §6, §7

Which IC50 (DYRK2) does the source give for `O=C1NC(NC23CC4CC(CC(O)(C4)C2)C3)=N/C1=C\c1ccc2ncccc2c1` [Compound 50, (4Z)-2-[(3-hydroxy-1-adamantyl)amino]-4-(6-quinolylmethylene)-1H-imidazol-5-one] here?
Its IC50 is at most 0.25 µM.

What about the IC50 (DYRK1A; IC50 class A to E, read-out: Potency Class DYRK1A) of the same compound?
Its IC50 is at most 0.005 µM.

And the IC50 (DYRK1A; class by IC50 on DYRK1A, from dose-response curves, read-out: Potency Class DYRK1A)?
The IC50 was under 0.005 µM.

What about the “Selectivity Class DYRK1A vs. CLK1” value (DYRK1A; ratio of IC50 on CLK1 over IC50 on DYRK1A) of the same compound?
Its value is “II (ratio between 2 and 10 fold)”.

And the “Selectivity Class DYRK1A vs. DYRK1B” value (DYRK1A; ratio of IC50 on DYRK1B over IC50 on DYRK1A)?
Its value is “II (ratio between 2 and 10 fold)”.

What about the IC50 (DYRK1A; read-out: IC50 on DYRK1A (most potent DYRK1A inhibitors)) of the same compound?
The IC50 was at most 0.01 µM.

And the IC50 (CLK4)?
Its IC50 is at most 0.01 µM.

What about the IC50 (DYRK3) of the same compound?
The IC50 was at most 0.25 µM.

Reference: patent publication US20250340538A1, “IMIDAZOLONE DERIVATIVES AS INHIBITORS OF PROTEIN KINASES IN PARTICULAR DYRK1A, CLK1 AND/OR CLK4” (PERHA PHARMACEUTICALS, priority 2021, published 2025)
